The text below walks through data of ChEMBL document CHEMBL4811279, “N-Substituted pyrrolopyrimidines and purines as p90 ribosomal S6 protein kinase-2 (RSK2) inhibitors” (Bioorg Med Chem, 2021).

Ribosomal protein S6 kinase alpha-3 (Homo sapiens), sequence (P51812 whole entry): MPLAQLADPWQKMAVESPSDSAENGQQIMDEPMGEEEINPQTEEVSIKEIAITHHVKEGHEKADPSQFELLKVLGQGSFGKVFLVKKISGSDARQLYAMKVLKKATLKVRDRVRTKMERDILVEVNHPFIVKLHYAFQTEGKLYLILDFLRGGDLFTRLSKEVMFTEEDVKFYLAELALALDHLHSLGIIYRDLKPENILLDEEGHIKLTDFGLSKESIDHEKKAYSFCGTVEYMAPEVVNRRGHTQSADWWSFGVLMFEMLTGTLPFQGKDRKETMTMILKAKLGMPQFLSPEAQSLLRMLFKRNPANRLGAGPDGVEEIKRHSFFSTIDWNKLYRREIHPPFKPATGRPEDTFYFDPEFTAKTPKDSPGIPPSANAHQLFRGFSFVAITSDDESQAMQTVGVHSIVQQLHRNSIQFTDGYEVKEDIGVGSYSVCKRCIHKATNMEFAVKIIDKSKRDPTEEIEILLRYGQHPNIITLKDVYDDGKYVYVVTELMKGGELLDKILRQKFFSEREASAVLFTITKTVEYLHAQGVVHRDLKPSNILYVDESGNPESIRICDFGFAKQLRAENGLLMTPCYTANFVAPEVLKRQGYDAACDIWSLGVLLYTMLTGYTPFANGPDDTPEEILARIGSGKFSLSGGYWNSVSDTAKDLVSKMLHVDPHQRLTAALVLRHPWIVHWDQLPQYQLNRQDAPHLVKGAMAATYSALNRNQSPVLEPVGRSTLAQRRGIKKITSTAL

This test addresses Ribosomal protein S6 kinase alpha-3 (Homo sapiens) (UniProt P51812). Briefly: Inhibition of RSK2 (unknown origin) using Ulight-rpS6 as substrate at 10 uM incubated for 1 hr in presence of ATP by TR FRET assay.
With `Oc1c(F)cc(Nc2ncc3ncn(-c4ccc(OCc5ccccc5)cc4)c3n2)cc1F`, the inhibition was 42%.
For `Oc1c(F)cc(Nc2ncc3ncn(-c4ccc(-c5ccccc5)cc4)c3n2)cc1F`, the inhibition is 49%.
As for `Oc1c(F)cc(Nc2ncc3cc[nH]c3n2)cc1F`, the inhibition was 77%.
Turning to `Oc1c(F)cc(Nc2ncc3ncn(-c4cccc(OCc5ccccc5)c4)c3n2)cc1F`, the inhibition came out at 63%.
For `Oc1c(F)cc(Nc2ncc3nc[nH]c3n2)cc1F` the value was 67%.
